The record followed here is ChEMBL document CHEMBL1144416, “Structural requirements for factor Xa inhibition by 3-oxybenzamides with neutral P1 substituents: combining X-ray crystallography, 3D-QSAR, and tailored scoring functions” (J Med Chem, 2005).

Each structure is given as a SMILES string.

Biological target in the first test: not listed separately
As to the kind of experiment: Binding affinity towards Thrombin. Further details: species or system Homo sapiens.
By Ki is commonly meant the dissociation constant of the complex between target and ligand, obtained from inhibition or displacement. Low values mean tighter binding, high ones weaker binding. On to `COc1cc(C(=O)NCC2CCN(c3ccncc3)CC2)cc(OCCc2ccc(Cl)cc2)c1Cl`, for which the affinity, expressed as Ki, was 3.73 µM.

As for `COc1cc(C(=O)NCC2CCN(c3ccncc3)CC2)cc(OCCc2ccc(Cl)cc2Cl)c1Br`, the Ki was determined as 2.27 µM.

`COc1ccc(C(=O)NCC2CCN(c3ccnc(C)c3)CC2)cc1OCCc1ccc(Cl)cc1Cl` showed a Ki of 20.8 µM.

For the compound `COc1cc(C(=O)NCC2CCN(c3ccncc3)CC2)cc(OCCc2ccc(Cl)cc2Cl)c1Cl`, the Ki stood at 1.8 µM.

Turning to `O=C(NCC1CCN(c2ccncc2)CC1)c1ccc(Cl)c(OCCc2ccc(Cl)cn2)c1`, affinity was put at a Ki of 5.4 µM. Against the preceding compound, the Ki is about 3-fold higher.

`COc1cc(C(=O)NCC2CCN(c3ccncc3)CC2)cc(OCCc2ccc(Cl)cc2Cl)c1C` displayed a Ki of 1.74 µM.

Compound `O=C(NCC1CCN(c2ccncc2)CC1)c1ccc(Cl)c(OCCc2ccc(Cl)cc2Cl)c1` displayed a Ki of 3.06 µM.

Compound `CCOc1cc(C(=O)NCC2CCN(c3ccncc3)CC2)cc(OCCc2ccc(Cl)cc2Cl)c1Br` showed a Ki of 36.9 µM.

On to `O=C(NCC1CCN(c2ccncc2)CC1)c1cc(OCCc2ccc(Cl)cc2Cl)c2c(c1)OCO2`, for which the Ki was 1.68 µM.

On to `Cc1ccc(C(=O)NCC2CCN(c3ccncc3)CC2)cc1OCCc1ccc(Cl)cc1Cl`, for which the Ki was 4.87 µM.

`NC(=O)c1cc(OCCc2ccc(Cl)cc2Cl)cc(C(=O)NCC2CCN(c3ccncc3)CC2)c1` registered a Ki of 5.08 µM.

As to `O=C(NCC1CCN(c2ccncc2)CC1)c1ccc(Cl)c(OCCc2ccc(Br)cc2)c1`, affinity was put at a Ki of 4.73 µM.

`COc1cc(C(=O)NCC2CCN(c3ccncc3)CC2)cc(OCCc2ccc(Cl)cc2Cl)c1OC` displayed a Ki of 4.12 µM.

Compound `COc1ccc(C(=O)NCC2CCN(c3ccncc3)CC2)cc1OCCc1ccc(Cl)cc1` showed a Ki of 5.27 µM.

For `CNc1ccc(C(=O)NCC2CCN(c3ccncc3)CC2)cc1OCCc1ccc(Cl)cc1Cl`, the Ki came to 1.1 µM. Compared with the last compound, the Ki is about 4.8-fold lower.

Regarding `O=C(NCC1CCN(c2ccncc2)CC1)c1ccc(F)c(OCCc2ccc(Cl)cc2)c1`, the Ki is 5.62 µM.

Consider `O=C(NCC1CCN(c2ccncc2)CC1)c1ccc(Cl)c(OCCc2ccc(Cl)cc2)c1`, for which the affinity, expressed as Ki, was 2.76 µM.

Compound `O=C(NCC1CCN(c2ccncc2)CC1)c1ccc(C(F)(F)F)c(OCCc2ccc(Cl)cc2Cl)c1` had a Ki of 31.8 µM.

`CCOc1ccc(C(=O)NCC2CCN(c3ccncc3)CC2)cc1OCCc1ccc(Cl)cc1Cl` registered a Ki of 6.32 µM.

The target of a further test is Coagulation factor X (Homo sapiens, UniProt P00742). As to the kind of experiment: Binding affinity towards human Coagulation factor X.
Chain of Coagulation factor X (P00742 41-179 limits assumed): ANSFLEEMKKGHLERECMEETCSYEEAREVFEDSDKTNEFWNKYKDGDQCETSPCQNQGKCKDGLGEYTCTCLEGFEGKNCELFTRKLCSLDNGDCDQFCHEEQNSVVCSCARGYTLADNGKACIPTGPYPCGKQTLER
Chain of Coagulation factor X (P00742 235-488 limits assumed): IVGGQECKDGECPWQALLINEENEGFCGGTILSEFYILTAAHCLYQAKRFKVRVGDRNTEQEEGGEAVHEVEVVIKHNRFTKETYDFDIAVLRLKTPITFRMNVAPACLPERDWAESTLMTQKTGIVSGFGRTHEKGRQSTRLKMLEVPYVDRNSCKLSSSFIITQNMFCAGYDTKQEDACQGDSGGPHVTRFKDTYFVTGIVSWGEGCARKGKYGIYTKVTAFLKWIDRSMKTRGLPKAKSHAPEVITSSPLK
Regarding `COc1ccc(C(=O)NCC2CCN(c3ccc(S(C)(=O)=O)cc3)CC2)cc1OCCc1ccc(Cl)cc1Cl`, the Ki was 10 µM.

Consider `COc1ccc(C(=O)NCC2CCN(c3ccnc(SC)n3)CC2)cc1OCCc1ccc(Cl)cc1Cl`, for which the Ki was 10 µM.

As to `CC(=O)Nc1ccc(CCOc2cc(C(=O)NCC3CCN(c4ccncc4)CC3)ccc2F)cc1`, the Ki came to 10 µM. This lies in the double-digit micromolar range.

`COc1ccc(C(=O)NCC2CCN(c3cccc(C#N)c3)CC2)cc1OCCc1ccc(Cl)cc1Cl` gave a Ki of 10 µM. This counts as double-digit micromolar.

On to `COc1ccc(C(=O)Nc2ccc(-c3ccccc3C#N)cc2)cc1OCCc1ccc(Cl)cc1Cl`, for which the Ki was found to be 10 µM.

Regarding `COc1ccc(C(=O)NC2CCN(C3CCCCC3)CC2)cc1OCCc1ccc(Cl)cc1Cl`, the Ki was 4.03 µM. This Ki is about 2.5-fold lower than that of the compound before.

In turn, `COc1ccc(C(=O)N2CCN(Cc3ccc(F)cc3)CC2)cc1OCCc1ccc(Cl)cc1Cl` had a Ki of 3.93 µM.

`COc1ccc(C(=O)NC2CCN(C3CCOCC3)CC2)cc1OCCc1ccc(Cl)cc1Cl` displayed a Ki of 2.52 µM. This Ki is about 1.6-fold lower than that of the compound before.

`CC(=O)Nc1ccc(CCOc2cc(C(=O)NCC3CCN(c4ccncc4)CC3)ccc2Cl)cc1` yielded a Ki of 10 µM.

`COc1ccc(C(=O)NCC2CCN(c3cncnc3)CC2)cc1OCCc1ccc(Cl)cc1Cl` yielded a Ki of 10 µM. In other words, the double-digit micromolar range.

Turning to `CCN(CC)C(=O)[C@H](CCCN=C(N)N)NC(=O)c1ccc(OC)c(OCCc2ccc(Cl)cc2Cl)c1`, affinity was put at a Ki of 0.153 µM.

Compound `COc1ccc(N2CCC(CNC(=O)c3ccc(OC)c(OCCc4ccc(Cl)cc4Cl)c3)CC2)cn1` registered a Ki of 10 µM.

As for `COc1ccc(C(=O)NCC2CCN(c3cc(C)nc(N)n3)CC2)cc1OCCc1ccc(Cl)cc1Cl`, affinity was put at a Ki of 10 µM. That is a double-digit micromolar value.

`COc1ccc(C(=O)NC2CCN(c3cc[n+]([O-])cc3)CC2)cc1OCCc1ccc(Cl)cc1Cl` had a Ki of 1.27 µM.

The compound `COc1ccc(C(=O)NC2CCN(CC(=O)N3CCCC3)CC2)cc1OCCc1ccc(Cl)cc1Cl` showed an inhibitory constant (Ki) of 2.57 µM.

In turn, `COc1ccc(C(=O)NCC2CCN(c3ccc(Cl)cc3)CC2)cc1OCCc1ccc(Cl)cc1Cl` had a Ki of 10 µM. Against the preceding compound, the Ki is about 3.9-fold higher.

In turn, `CC(=O)Oc1cc(C(=O)NCC2CCN(c3ccncc3)CC2)cc(OCCc2ccc(Cl)cc2Cl)c1Br` yielded a Ki of 0.285 µM.

`COc1cc(N2CCC(CNC(=O)c3ccc(OC)c(OCCc4ccc(Cl)cc4Cl)c3)CC2)nc(OC)n1` registered a Ki of 10 µM.

On to `COc1ccc(C(=O)NCC2CCN(C3CCNCC3)CC2)cc1OCCc1ccc(Cl)cc1Cl`, for which the Ki was 5.76 µM.

`O=C(c1cccc(OCCc2ccc(Cl)cc2Cl)c1)N1CCN(Cc2ccncc2)CC1` yielded a Ki of 2.82 µM.
